Assay results: patent US20080214844A1, “Icaritin and desmethylicaritin as anti-cancer agents” (priority 2007, published 2008)

Assays:
[1] = tested on: human micro vessel endothelial cell (HMVECs); experiment: HMVEC proliferation assay; format: cell-based
Protocol: Icaritin is a potent inhibitor of angiogenesis. Inhibition of human micro vessel endothelial cell (HMVECs) proliferation by Icaritin was investigated. HMVEC proliferation in response to Icaritin was determined using a modified method from previously described procedures. Briefly, HMVECs fed 1 day before use (with a fresh media exchange to obtain optimal growth conditions) were trypsinized and resuspended at 5×10^4 cells/ml in EBM (Clonetics)+2% FBS+gentamicin. An equivalent number of cells (2.5×10^3) in 50 μl cell suspension was plated nonconfluently onto each well of a 96-well plate and allowed to adhere for 4 h at 37° C. Serial Icaritin dilutions were prepared in this media at 3× concentration, of which 50 μl was added to the 100 μl cell suspension already in the wells, resulting in 150 μl 1× dilutions. The plate was incubated for up to 72 h at 37° C. […] Absorbance was read at 490 nm on an ELISA plate reader with Microplate Manager (Bio-Rad, Richmond, Calif.). Proliferation curves for HMVECs were determined, and measurements were obtained and compared in the log proliferation phase, which was 3 days (t=72 h) for the conditions described. […]

Raji = experiment: MTT cell viability assay, Raji; format: cell-based, human; details: Homo sapiens, 72 h, Lymphoma, 3 days culture
Protocol: (§1) 26 cancer cell lines were grown in normal growth medium in the presence of different concentrations Icaritin or Desmethylicaritin. After culture for 3 days, the cell viability was then measured by an MTT assay. […] Some EC50s were lower than 10 uM for these two compounds. […] Whereas, normal human mammary gland epithelial cells (MCF10A) were not sensitive to Icaritin and Desmethylicaritin. These cells grew well when treated with these two compounds at a concentration of 50 uM.

MCF-7 = experiment: MTT cell viability assay, MCF-7; format: cell-based, human; details: Homo sapiens, MCF7, 72 h, MCF-7, Breast, 3 days culture
Protocol: as §1

human lung cancer = experiment: Human lung cancer xenograft model; format: in vivo
Source text: ICA was extensively biotransformed and converted to at least three metabolites: Icariside II (molecule weight=514), Icaritin (molecule weight=368), and Desmethylicaritin (molecule weight=354). […] Icaritin and Desmethylicaritin have huge potentials to be developed as novel and broad anti cancer drugs.
FIG. 2. Response of Human Lung tumor to treatment with Icaritin and Desmethyliciarityn.

AU-565 = experiment: MTT cell viability assay, AU-565; format: cell-based, human; details: Homo sapiens, AU565, 72 h, AU-565, Breast, 3 days culture
Protocol: as §1

PC3 = experiment: MTT cell viability assay, PC3; format: cell-based, human; details: Homo sapiens, PC-3, 72 h, PC3, Prostate, 3 days culture
Protocol: as §1

MCF-10a = experiment: MTT cell viability assay, MCF-10a normal breast epithelial cells; format: cell-based, human
Protocol: as §1

Caki-1 = experiment: MTT cell viability assay, Caki-1; format: cell-based, human; details: Homo sapiens, 72 h, Caki-1, Kidney, 3 days culture
Protocol: as §1

A549 = experiment: MTT cell viability assay, A549; format: cell-based, human; details: Homo sapiens, 72 h, A549, Lung, 3 days culture
Protocol: as §1

G-361 = experiment: MTT cell viability assay, G-361; format: cell-based, human; details: Homo sapiens, 72 h, G-361, Skin, 3 days culture
Protocol: as §1

SKOV3 = experiment: MTT cell viability assay, SKOV3; format: cell-based, human; details: Homo sapiens, SK-OV-3, 72 h, SKOV3, Ovary, 3 days culture
Protocol: as §1

Jurkat T cell = experiment: MTT cell viability assay, Jurkat T cell; format: cell-based, human; details: Homo sapiens, 72 h, Leukemia, 3 days culture
Protocol: as §1

MDA-MB-231 = experiment: MTT cell viability assay, MDA-MB-231; format: cell-based, human; details: Homo sapiens, 72 h, MDA-MB-231, Breast, 3 days culture
Protocol: as §1

LNCAP = experiment: MTT cell viability assay, LNCAP; format: cell-based, human; details: Homo sapiens, 72 h, Prostate, 3 days culture
Protocol: as §1

MDA-MB-435 = experiment: MTT cell viability assay, MDA-MB-435; format: cell-based, human; details: Homo sapiens, 72 h, MDA-MB-435, Breast, 3 days culture
Protocol: as §1

CCL-247 = experiment: MTT cell viability assay, CCL-247; format: cell-based, human; details: Homo sapiens, 72 h, CCL-247, Colon, 3 days culture
Protocol: as §1

IC50 (Raji): 5.4 µM
IC50 (MCF-7): 18.2 µM
IC50 (PC3): 9.4 µM
IC50 (A549): 10.6 µM
IC50 (SKOV3): 9.8 µM
IC50 (Jurkat T cell): 5.1 µM
IC50 (MDA-MB-231): 5.3 µM
IC50 (LNCAP): 5.3 µM
IC50 (MDA-MB-435): 10.2 µM
SMILES: COc1ccc(-c2oc3c(CC=C(C)C)c(O)cc(O)c3c(=O)c2O)cc1 [Icaritin]
inhibition of proliferation and inducing cell apoptosis ([1]; 10 uM, HUVECs and HMVECs): significant levels of inhibition
EC50 ([1]; Homo sapiens, HMVEC, 72 h, Cell Titer 96 Aqueous assay, read-out: EC50, inhibition of HMVEC proliferation): 8.7 µM
human lung cancer cell growth in vivo (human lung cancer): strongly inhibiting
IC50 (AU-565): 7.9 µM
IC50 (MCF-10a; Homo sapiens, 72 h, MCF-10a, Normal breast epithelial cells, 3 days culture, MTT): > 50 µM
sensitivity of normal human mammary gland epithelial cells (MCF10A) (MCF-10a; cells grew well at 50 uM): not sensitive
IC50 (Caki-1): 7 µM
IC50 (G-361): 6.9 µM
IC50 (CCL-247): 16.5 µM
